“And” between values parts separate entries of the source, which are not always exact repeats. Equal values may be shown once.
What was measured:
Format in all cases: in vivo
Alopecurus myosuroides = assay: greenhouse pre-emergence treatment, ALOMY; settings: Ex. 26 solo, 62.5 gai/ha, 20 DAT
Method in brief: (§1)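 Pre-emergence spray of compounds, alone or as combinations formulated as 10% emulsion concentrate in water, directly after sowing in loamy sand (~3.0% humus); pots hooded until rooting, kept at 10-25° C or 20-35° C per species for 2 to 4 weeks. Damage scored 0-100 (100 = no emergence/complete destruction); Colby expected value E=X+Y−(X·Y/100).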

Setaria viridis = assay: greenhouse pre-emergence treatment, SETVI
Method in brief: as §1

Papaver rhoeas = assay: greenhouse pre-emergence treatment, PAPRH
Method in brief: as §1

Echinocloa crus-galli = assay: greenhouse pre-emergence treatment, ECHCG
Method in brief: as §1

Helianthus annuus = assay: greenhouse post-emergence treatment, HELAN
Method in brief: (§2)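 Greenhouse; post-emergence spray at 3–15 cm; aqueous EC formulation; 2–4 weeks; 0–100 visual score.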

Apera spica-venti = assay: greenhouse post-emergence treatment, APESV
Method in brief: as §2

Avena fatua = assay: greenhouse post-emergence treatment, AVEFA
Method in brief: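 Seeds sown per species in loamy sand substrate (about 3.0% humus); some raised separately and transplanted shortly before treatment. Treatments applied in water post-emergence, plants held at 10-25° C. or 20-35° C. by species, then scored after 2 to 4 weeks, where 100 means total kill and 0 no damage.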

Stellaria media = assay: greenhouse post-emergence treatment, STEME
Method in brief: as §2

[1] = 20 DAT, Ex. 26 solo 31.25 gai/ha
[2] = 20 DAT, Ex. 26 solo 62.5 gai/ha
[3] = 20 DAT, solo Ex. 26 62.5 gai/ha
[4] = Ex. 26 solo 31.25 gai/ha, 20 DAT
[5] = Ex. 26 solo 62.5 gai/ha, 20 DAT
[6] = Ex. 26 solo, 31.25 gai/ha, 20 DAT

COC(=O)c1nc(C2CC2)ncc1-c1ccc(F)cc1Cl [Ex. 26]
% activity (Alopecurus myosuroides): 80%
% activity (Setaria viridis; [1]): 0%
% activity (Setaria viridis; [2]): 0%
% activity (Setaria viridis; 20 DAT, Ex. 26 solo 125 gai/ha): 10%
% activity (Setaria viridis; Ex. 26 solo 62.5 gai/ha, 20 DAT, SETVI): 0%
% activity (Setaria viridis; Ex. 26 solo 62.5 gai/ha, 21 DAT, SETVI): 0%
% activity (Setaria viridis; Ex. 26 solo 125 gai/ha, 20 DAT, SETVI): 0%
% activity (Setaria viridis; Ex. 26 solo 125 gai/ha, 21 DAT, SETVI): 20%
% activity (Setaria viridis; Ex. 26 solo 250 gai/ha, 21 DAT, SETVI): 25%
% activity (Setaria viridis; Ex. 26 solo, 31.25 gai/ha, 20 DAT, SETVI): 0%
% activity (Setaria viridis; Ex. 26 solo, 62.5 gai/ha, 20 DAT, SETVI): 0%
% activity (Setaria viridis; Ex. 26 solo, 125 gai/ha, 20 DAT, SETVI): 0%
% activity (Setaria viridis; SETVI, 20 DAT, solo Ex. 26 125 gai/ha): 0%
% activity (Setaria viridis; SETVI, Ex. 26 solo 125 gai/ha, 20 DAT): 10%
% activity (Setaria viridis; SETVI, Ex. 26 solo 250 gai/ha, 20 DAT): 35%
% activity (Papaver rhoeas; [1]): 0%
% activity (Papaver rhoeas; [2]): 0%
% activity (Papaver rhoeas; 20 DAT, Ex. 26 solo 125 gai/ha): 30%
% activity (Papaver rhoeas; [3]): 0%
% activity (Papaver rhoeas; [4]): 0%
% activity (Papaver rhoeas; [5]): 0%
% activity (Papaver rhoeas; Ex. 26 solo 125 gai/ha, 20 DAT): 0% and 30%
% activity (Papaver rhoeas; [6]): 0%
% activity (Papaver rhoeas; Ex. 26 solo, 62.5 gai/ha, 20 DAT): 0%
% activity (Papaver rhoeas; Ex. 26 solo, 125 gai/ha, 20 DAT): 0%
% activity (Echinocloa crus-galli; [1]): 50%
% activity (Echinocloa crus-galli; 20 DAT, Ex. 26 solo 125 gai/ha): 90%
% activity (Echinocloa crus-galli; [3]): 60%
% activity (Echinocloa crus-galli; [4]): 50%
% activity (Echinocloa crus-galli; [5]): 70%
% activity (Echinocloa crus-galli; Ex. 26 solo 125 gai/ha, 20 DAT): 90%
% activity (Echinocloa crus-galli; [6]): 50%
% activity (Helianthus annuus; 20 DAT, Ex. 26 solo 250 gai/ha): 0%
% activity (Helianthus annuus; 20 DAT, HELAN, Ex. 26 solo 125 gai/ha): 0% and 10%
% activity (Helianthus annuus; 20 DAT, HELAN, Ex. 26 solo 250 gai/ha): 10%
% activity (Helianthus annuus; Ex. 26 solo 62.5 gai/ha, 20 DAT, HELAN): 0%
% activity (Helianthus annuus; Ex. 26 solo 125 gai/ha, 20 DAT, HELAN): 0%
% activity (Helianthus annuus; Ex. 26 solo 250 gai/ha, 20 DAT, HELAN): 5%
% activity (Helianthus annuus; Ex. 26 solo, 125 gai/ha, 21 DAT, HELAN): 10%
% activity (Helianthus annuus; Ex. 26 solo, 250 gai/ha, 21 DAT, HELAN): 25%
% activity (Apera spica-venti; 20 DAT, APESV, Ex. 26 solo 62.5 gai/ha): 70%
% activity (Apera spica-venti; 20 DAT, APESV, Ex. 26 solo 125 gai/ha): 75%
% activity (Apera spica-venti; 20 DAT, APESV, Ex. 26 solo 250 gai/ha): 80%
% activity (Apera spica-venti; 21 DAT, Ex. 26 solo 125 gai/ha): 65%
% activity (Apera spica-venti; 21 DAT, Ex. 26 solo 250 gai/ha): 75%
% activity (Apera spica-venti; APESV, Ex. 26 solo 125 gai/ha, 20 DAT): 75% and 70%
% activity (Apera spica-venti; APESV, Ex. 26 solo 250 gai/ha, 20 DAT): 75%
% activity (Apera spica-venti; Ex. 26 solo 62.5 gai/ha, 20 DAT, APESV): 60%
% activity (Apera spica-venti; Ex. 26 solo 125 gai/ha, 20 DAT, APESV): 70%
% activity (Apera spica-venti; Ex. 26 solo 250 gai/ha, 20 DAT, APESV): 75%
% activity (Avena fatua; 20 DAT, AVEFA, Ex. 26 solo 62.5 gai/ha): 65%
% activity (Avena fatua; 20 DAT, AVEFA, Ex. 26 solo 125 gai/ha): 75%
% activity (Avena fatua; 20 DAT, AVEFA, Ex. 26 solo 250 gai/ha): 75%
% activity (Avena fatua; [2]): 35%
% activity (Avena fatua; 20 DAT, Ex. 26 solo 250 gai/ha): 70%
% activity (Avena fatua; AVEFA, 21 DAT, solo Ex. 26 62.5 gai/ha): 70%
% activity (Avena fatua; AVEFA, 21 DAT, solo Ex. 26 125 gai/ha): 70%
% activity (Avena fatua; AVEFA, Ex. 26 solo 125 gai/ha, 20 DAT): 70%
% activity (Avena fatua; AVEFA, Ex. 26 solo 250 gai/ha, 20 DAT): 75%
% activity (Avena fatua; Ex. 26 solo 62.5 gai/ha, 20 DAT, AVEFA): 65%
% activity (Avena fatua; Ex. 26 solo 62.5 gai/ha, 21 DAT, AVEFA): 50%
% activity (Avena fatua; Ex. 26 solo 125 gai/ha, 20 DAT, AVEFA): 70%
% activity (Avena fatua; Ex. 26 solo 250 gai/ha, 20 DAT, AVEFA): 75%
% activity (Avena fatua; Ex. 26 solo, 125 gai/ha, 20 DAT, AVEFA): 65%
% activity (Avena fatua; Ex. 26 solo, 125 gai/ha, 21 DAT, AVEFA): 70%
% activity (Avena fatua; Ex. 26 solo, 250 gai/ha, 20 DAT, AVEFA): 85%
% activity (Stellaria media; [2]): 0%
% activity (Stellaria media; 20 DAT, STEME, Ex. 26 solo 250 gai/ha): 60%
% activity (Stellaria media; Ex. 26 solo 62.5 gai/ha, 20 DAT, STEME): 20%
% activity (Stellaria media; Ex. 26 solo 125 gai/ha, 20 DAT, STEME): 55%
% activity (Stellaria media; Ex. 26 solo 125 gai/ha, 21 DAT, STEME): 0%
% activity (Stellaria media; Ex. 26 solo 250 gai/ha, 20 DAT, STEME): 30%
% activity (Stellaria media; Ex. 26 solo, 125 gai/ha, 21 DAT, STEME): 0%
% activity (Stellaria media; Ex. 26 solo, 250 gai/ha, 21 DAT, STEME): 10%
% activity (Stellaria media; STEME, 21 DAT, solo Ex. 26 62.5 gai/ha): 0%
% activity (Stellaria media; STEME, 21 DAT, solo Ex. 26 125 gai/ha): 0%
% activity (Stellaria media; STEME, 21 DAT, solo Ex. 26 250 gai/ha): 10%
% activity (Stellaria media; STEME, Ex. 26 solo 125 gai/ha, 20 DAT): 40%
% activity (Stellaria media; STEME, Ex. 26 solo 250 gai/ha, 20 DAT): 40%
